Test results taken from patent publication US7160894B2, “Tricyclic compound” (Asahi Kasei Pharma Corporation, priority 2003, dated 2007).

How the values were obtained:
[1] = test system: lipopolysaccharide-induced pulmonary inflammation; test: Pulmonary inflammation suppressing action, LPS-induced (Test Example 8); type: in vivo, BALB/c female mice; settings: mice, LPS inhalation, test compound by inhalation over 10 minutes, 3 hours after administration
Source text: According to Gonzales de Moraes, V L., et al., Br. J. Pharmacol., 123, pp. 631–6, 1998, suppressing action on pulmonary inflammation was studied. BALB/c female mice (7-week old) were used for the test, as the compound administration group and positive control group, each consisting of 7 mice, as well as the negative control group consisting of 5 mice. For induction of inflammation, a 0.03% physiological saline solution of a lipopolysaccharide (LPS, a mixture derived from Escherichia coli O55 and B5 strains, Sigma) was used. A test compound was dissolved in physiological saline to prepare solutions of various concentrations. The test animals were first inhaled with the aforementioned lipopolysaccharide solution for 10 minutes by using a pressurization type nebulizer (PARI-IS2) to induce inflammation. Then, 1 minute after the completion of the inhalation of the lipopolysaccharide solution, the animals were administered with a solution of test compound at various concentrations over 10 minutes by inhalation using the aforementioned nebulizer. The mice of the positive control group were administered with the same volume of physiological saline instead of the test compound solution over 10 minutes by inhalation. Three hours after the administration of the test compound, pulmonary cavities of the test animals were washed with physiological saline, and the total infiltrated leucocyte (WBC) number was counted.

[2] = test system: thoracic aorta constricted with phenylephrine; test: Vasoconstriction inhibitory action (Test Example 2); parameters: species or system Rats (Wistar); settings: test compound 1 μM; rat thoracic aorta constricted with phenylephrine 1 μM
Source text: Rats (Wistar, 11-week old) were bleeded to death and laparotomized to take out the thoracic aorta. That aorta was cut into a ring of a length of about 3 mm in a conventional manner (Asano, T., et al., J. Pharmacol. Exp. Ther., 241, pp. 1033–1040 (1987)) and hung in 10-ml organ bath filled with Krebs-Hensright nutrient solution bubbled with a mixed gas of 95% O2 and 5% CO2. One end of the blood vessel was connected to an isometric transducer (FD Pickup TB-912T, Nihon Kohden) and applied with 2.5 g of resting tension, and constriction and relaxation reactions of the aorta were recorded.
The aorta was constricted with phenylephrine (1 μM, Sigma) and then added with a test compound (1 μM), and the vasoconstriction inhibitory action thereof was observed. The vasoconstriction inhibitory actions of the test compounds were calculated as relaxation ratios, which were based on the vasoconstriction with phenylephrine observed immediately before the addition of the test compounds taken as 100%.

intraocular pressure = test: Intraocular pressure reducing action (Test Example 4); type: in vivo, Japanese white rabbit; settings: rabbit, 50 μl of aqueous solution dropped to the left eye
Experimental: A Japanese white rabbit having a body weight of about 2 kg was placed in a positioner and naturalized for one week before the experiment. An ophthalmologic local anesthesant (Benoxil) was administered to the left eye, and then intraocular pressure was measured by using a tonometer (Classic 30, Solan). The initial value of the intraocular pressure was measured, then 50 μl of an aqueous solution of a test compound was dropped to the left eye at various concentrations, and the intraocular pressure was measured with passage of time.

[3] = test system: cerebral hippocampal neurons; test: Neurite outgrowth action (Test Example 5); type: cell-based, Sprague-Dawley rats; settings: rat hippocampal neurons, 24 hours after addition
Experimental: From 18 day-old Sprague-Dawley rats, cerebral hippocampal neurons were prepared according to the method of Neuman et al. (Neuman, H. R. et al., J. Neurosci., 22, pp. 854–862, 2002). The prepared neurons were cultured for 24 hours according to the method of Tanaka et al. (Tanaka, H. et al., J. Cell Biol., 158 (2), pp. 321–329, 2002), then the medium was exchanged with fresh medium, and test medicaments of various concentrations or equivalent amounts of vehicle were added. Twenty-four hours after the addition of the medicaments, neurite length of each neuron was measured for the medicament-added group and the no-addition group, and compared. The neurite length was evaluated according to the method of Neuman et al. (Neuman, H. R. et al., J. Neurosci., 22, pp. 854–862, 2002).

[4] = test system: phosphorylated myosin regulatory light chain in neutrophils; test: Action on amount of phosphorylated myosin regulatory light chain in the cells (Test Example 1); type: cell-based; settings: Neutrophil, 5 min; human neutrophils, reaction at 25° C. for 5 minutes; read-out: concentration at which the phosphorylation of myosin regulatory light chain is inhibited (IC50)
Experimental: A volume of 50 to 100 ml of peripheral blood collected from healthy volunteers was centrifuged by using Mono-Poly separator solution (Dainippon Pharmaceutical) to prepare a neutrophil containing fraction. The neutrophils were washed with PBS(−) and resuspended in Hanks' Balanced Salt Solution (HBSS+, Gibco) to prepare a cell suspension (8×10^6/ml). The cell suspension was diluted to 5×10^6/ml, introduced into Eppendorf tubes in a volume of 0.4 ml each, then 0.1 ml each of solutions of a test compound at various concentrations were added to the suspension and allowed to react at 25° C. for 5 minutes. After the reaction, 0.1 ml of trichloroacetic acid solution was added to each reaction, the reaction mixture was gently shaken and centrifuged at 12,000 rpm (4° C., 5 minutes), and the supernatant was removed. Subsequently, 3 μl of 1 M Tris solution was added to the residue, the mixture was further mixed with 50 μl of extraction buffer (8 M urea, 0.02% 2-mercaptoethanol, 0.002% bromophenol blue) and left stand at room temperature for 1 hour. Then, the reaction mixture was loaded on a spin column (0.45 μm, Millipore) to remove the insoluble solids and a sample buffer for SDS polyacrylamide gel electrophoresis (25 mM, Tris-HCl pH 6.8, 2.5% 2-mercaptoethanol, 2% sodium dodecylsulfate, 5% sucrose, 0.002% bromophenol blue as final concentrations) was added, and 10 μl of each sample was subjected to electrophoresis.
The gel after the electrophoresis was blotted on a nitrocellulose membrane (BioRad), blocked with 5% skim milk, and reacted successively with antibodies pLC1 (Sakurada K. et al, Am. J. Physiol., 274, C1563–C1572 (1998)), which specifically recognize the phosphorylated myosin regulatory light chain, and donkey anti-mouse IgG (Chemicon) conjugated with horseradish peroxidase. The band of the phosphorylated myosin regulatory light chain was detected on a film by using ECL Plus Kit (Amersham Pharmacia Biotech). This band was subjected to quantification using a densitometer. By using this value, the inhibitory ratio (%) for phosphorylation of the myosin regulatory light chain was calculated by using the following equation. Phosphorylation inhibition ratio (%)=1−(Band intensity of phosphorylated myosin regulatory light chain with addition of the test compound/Band intensity of phosphorylated myosin regulatory light chain without addition of the test compound)×100
Further, the phosphorylation inhibition ratio was calculated with changing the concentrations of the test compound, and a compound concentration providing an inhibition ratio of 50% was obtained as IC50.

neutrophils = test: Neutrophil migration inhibitory action, Boyden Chamber, FMLP (Test Example 6); type: cell-based; settings: 0.5 h, human neutrophils, FMLP 1 μM, 37° C., 30 minutes, read-out: concentration at which the migration of neutrophils is inhibited (IC50)
Experimental: Neutrophils were isolated from 50 to 100 ml of peripheral blood collected from healthy human donors by the method described in Test Example 1 to obtain a cell suspension (8×10^6/ml). Subsequently, solutions of a test compound at various concentrations were introduced into wells of a 96-well plate in a volume of 125 μl per well, the cell suspension of an equivalent volume was added to it and the plate was preincubated at room temperature for 5 minutes. During the preincubation, FMLP (1 μM, Sigma) solution was added to the lower chamber to set Boyden Chamber, the preincubated cell suspension was added to the upper chamber in a volume of 200 μl per well, and the cells were allowed to migrate at 37° C. under 5% carbon dioxide for 30 minutes. The filter after the migration was collected, and the non-migrated cells adhered to the surface that faced the upper chamber were carefully wiped off. Then, the migrated cells on the back surface were stained with DifQuick dye solution (International Reagents), washed with water and dried, and then absorbance was measured at 595 nm. The inhibition ratio against migration (%) of a test compound was calculated by using the following equation: Migration inhibition ratio (%)=(1−Absorbance of the group with addition of test compound/Absorbance of the group without addition of test compound)×100
Further, the migration inhibitory ratio was calculated with changing the test compound concentration, and a compound concentration providing an inhibition ratio of 50% was obtained as IC50. The compounds of the present invention obtained in Examples 1, 11, 12, 13, 14, 15, 16, 18, 19, 20, 21, 22, 24, 31, 41, 42, 47, 52, 53, 54, 55, 56, 57, 58, 59, 60, 62, 63, 64, 65, 66, 67, 68, 72, 73, 74, 75, 76, 77, 78, 79, 80, 81, 82, 83, 84, 87, 88, 89, 90, and 91 inhibited the migration of neutrophils at a concentration of 40 μM or less, and further, the compounds of Examples 1, 11, 12, 13, 14, 15, 19, 21, 22, 24, 31, and 41 inhibited the migration of neutrophils at a concentration of 10 μM or less. Further, trans-benzyl-[4-(2,3-dihydro-1,5-diazaphenalen-1-yl)cyclohexyl]amine inhibited the migration of neutrophils at a concentration of 40 μM or less.

Compound | IC50 [4] | IC50 (neutrophils) | pulmonary inflammation, total infiltrated leucocyte (WBC) number [1] | vasoconstriction inhibitory action (relaxation ratio) [2] | intraocular pressure reducing action (intraocular pressure) | neurite outgrowth (neurite length) [3]
COCCN1CCC(N2CCc3cncc4cccc2c34)CC1.Cl [Example 19] | – | – | significantly improved the pathological condition | significant vasoconstriction inhibitory action | significant intraocular pressure reducing action | significant neurite outgrowth axis extension
CN[C@H]1CC[C@H](N2CCc3cncc4cccc2c34)CC1.Cl [Example 41] | – | – | significantly improved the pathological condition | significant vasoconstriction inhibitory action | significant intraocular pressure reducing action | significant neurite outgrowth axis extension
CC(=O)N(C)CCN1CCC(N2CCc3cncc4cccc2c34)CC1 [Example 59, N-{2-[4-(2,3-dihydro-1,5-diazaphenalen-1-yl)piperidin-1-yl]ethyl}-N-methylacetamide] | ≤ 40 µM | ≤ 40 µM | – | – | significant intraocular pressure reducing action | –
c1ccc(CN[C@H]2CC[C@H](N3CCc4cncc5cccc3c45)CC2)cc1 [trans-benzyl-[4-(2,3-dihydro-1,5-diazaphenalen-1-yl)cyclohexyl]amine] | ≤ 40 µM | ≤ 40 µM | – | – | – | –
Cl.O=C(O)CCN1CCC(N2CCc3cncc4cccc2c34)CC1 [Example 16] | – | – | – | significant vasoconstriction inhibitory action | significant intraocular pressure reducing action | significant neurite outgrowth axis extension

Second part, led by results:

IC50 [4] | IC50 (neutrophils) | Compound | pulmonary inflammation, total infiltrated leucocyte (WBC) number [1] | vasoconstriction inhibitory action (relaxation ratio) [2] | intraocular pressure reducing action (intraocular pressure) | neurite outgrowth (neurite length) [3]
≤ 40 µM | ≤ 40 µM | FC1CNCCC1N1CCc2cncc3cccc1c23 (stereo not shown) [Example 54, 1-(3-fluoropiperidin-4-yl)-2,3-dihydro-1H-1,5-diazaphenalene] | – | – | significant intraocular pressure reducing action | –
≤ 40 µM | ≤ 40 µM | CN(C)[C@H]1CC[C@H](N2CCc3cncc4cccc2c34)CC1 [Example 53, trans-[4-(2,3-dihydro-1,5-diazaphenalen-1-yl)cyclohexyl]dimethylamine] | – | – | significant intraocular pressure reducing action | –
≤ 40 µM | ≤ 40 µM | CC(=O)NCCN1CCC(N2CCc3cncc4cccc2c34)CC1 [Example 42] | – | – | significant intraocular pressure reducing action | –
≤ 40 µM | ≤ 40 µM | O=C1CCN1CCN1CCC(N2CCc3cncc4cccc2c34)CC1 [Example 60, 1-{2-[4-(2,3-dihydro-1,5-diazaphenalen-1-yl)piperidin-1-yl]ethyl}azetidin-2-one] | – | – | significant intraocular pressure reducing action | –
